Experiment [1] addresses T1, human 5-hydroxytryptamine-2C (h5-HT2C) receptor (Homo sapiens, UniProt P28335).
T1 construct: expressed in transfected cells; host or cells: CHO (Chinese Hamster Ovary) cells; membranes
T1 sequence (P28335 33-458): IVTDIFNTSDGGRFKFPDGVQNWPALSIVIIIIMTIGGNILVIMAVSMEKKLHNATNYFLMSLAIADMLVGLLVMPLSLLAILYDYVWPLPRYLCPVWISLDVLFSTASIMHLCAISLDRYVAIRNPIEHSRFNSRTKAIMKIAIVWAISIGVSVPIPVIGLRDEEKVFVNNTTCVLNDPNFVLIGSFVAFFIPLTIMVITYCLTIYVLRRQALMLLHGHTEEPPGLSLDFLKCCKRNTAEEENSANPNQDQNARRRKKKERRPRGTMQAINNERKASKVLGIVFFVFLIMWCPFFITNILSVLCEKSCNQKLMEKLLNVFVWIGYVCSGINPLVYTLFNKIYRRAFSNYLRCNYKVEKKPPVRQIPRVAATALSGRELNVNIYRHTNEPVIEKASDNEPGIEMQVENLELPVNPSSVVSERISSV
The experiment can be described thus: [125I]DOI binding to membranes of CHO cells expressing the human 5-HT2C receptor. The note with it: [125I]DOI radioligand, CHO cell membranes, room temperature 60 min; read-out: 5-HT2C Affinity Ki.

A further experiment has as its target T2, human 5-HT2C receptor (Homo sapiens, UniProt P28335).
T2 sequence (P28335 33-458): T1 sequence (P28335 33-458)
The experiment in a line: 5-HT2C receptor-stimulated calcium mobilization (FLIPR) in CHO cells.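 On all read-outs here: Fluo-3-AM fluorescence read on FLIPR every 1 s, agonist added after 10 baseline reads, response taken as peak minus lowest raw fluorescence count.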 The note with it: for Emax: CHO, read-out: 5-HT2C Function Emax (%); for Emax / 5-HT2C Function Emax (%): percentage of the response observed with a maximally effective concentration of 5-HT; for EC50: calcium mobilization, CHO cells stably expressing human 5-HT2C, read-out: 5-HT2C Function EC50. It counts as cell-based. For orientation: Calcium flux is commonly read through the fluorescence of an indicator in the cells.

This note sets out measurements from patent US7435837B2, “Dihydrobenzofuranyl alkanamine derivatives and methods for using same” (Wyeth, priority 2003, dated 2008).

For orientation: Ki means a dissociation constant, usually derived from enzyme kinetics or from competition with a known ligand. By Emax is commonly meant the greatest response seen or fitted, relative to the assay's reference. The EC50 is the concentration giving half of the maximal effect.

Regarding `CNCC1Cc2cc(C)cc(-c3ccc(OC)cc3)c2O1` (racemic) [Example 483, (±)-{[7-(4-methoxyphenyl)-5-methyl-2,3-dihydro-1-benzofuran-2-yl]methyl}methylamine], the inhibition constant Ki in experiment [1] amounted to 5 nM. At human 5-HT2C receptor, the Emax amounted to 80% and the EC50 worked out at 58 nM.
The corresponding values for `CNCC1Cc2cc(F)cc(-c3cc(Cl)ccc3Cl)c2O1` (single isomer, unassigned; (+)) [Example 450, (+)-{[5-fluoro-7-(2,5-dichlorophenyl)-2,3-dihydro-1-benzofuran-2-yl]methyl}methylamine] are 0.27 nM, 100% and 0.8 nM.
Taken in the same sequence, the figures for `COc1ccc(Cl)cc1-c1cc(Cl)cc2c1OC(CN)C2` (racemic) [Example 257, (±)-{[5-chloro-7-(5-chloro-2-methoxyphenyl)-2,3-dihydro-1-benzofuran-2-yl]methyl}amine] were 28 nM, 80% and 194 nM.
`CNCC1Cc2ccc(F)c(-c3ccccc3C)c2O1` (racemic) [Example 401, (±)-{[6-fluoro-7-(2-methylphenyl)-2,3-dihydro-1-benzofuran-2-yl]methyl}methylamine]: the Ki in experiment [1] is 0.38 nM. For the same compound, at human 5-HT2C receptor, the maximum response (Emax) turned out to be 90% and the EC50 came out at 0.7 nM.
Consider `Cc1ccccc1-c1cc(C2CCCC2)cc2c1OC(CN)C2` (racemic) [Example 309, (±)-{[5-cyclopentyl-7-(2-methylphenyl)-2,3-dihydro-1-benzofuran-2-yl]methyl}amine], for which the Ki in experiment [1] stood at 8 nM. At human 5-HT2C receptor, the Emax turned out to be 90% and the concentration giving a half-maximal response (EC50) came to 107 nM.
The corresponding values for `NCC1Cc2cc(Cl)cc(-c3ccccc3)c2O1` (single isomer, unassigned; (+)) [Example 85, (+)-1-(5-chloro-7-phenyl-2,3-dihydro-1-benzofuran-2-yl)methanamine] are 5 nM, 100% and 557 nM.
Taken in the same sequence, the figures for `Cc1cccc(C)c1-c1cc(Cl)cc2c1OC(CN)C2` (single isomer, unassigned; (-)) [Example 261, (−)-{[5-chloro-7-(2,6-dimethylphenyl)-2,3-dihydro-1-benzofuran-2-yl]methyl}amine] were 0.5 nM, 90% and 67 nM.
Taken in the same sequence, the figures for `NCC1Cc2cc(F)cc(-c3cccc(Cl)c3Cl)c2O1` (racemic) [Example 211, (±)-{[7-(2,3-dichlorophenyl)-5-fluoro-2,3-dihydro-1-benzofuran-2-yl]methyl}amine] were 19 nM, 70% and 672 nM.
For `CNCC1Cc2cc(F)cc(-c3cc(Cl)ccc3Cl)c2O1` (single isomer, unassigned; (-)) [Example 451, (−)-{[5-fluoro-7-(2,5-dichlorophenyl)-2,3-dihydro-1-benzofuran-2-yl]methyl}methylamine], in experiment [1], the inhibition constant Ki worked out at 0.31 nM. In addition, on human 5-HT2C receptor, the half-maximal effective concentration (EC50) turned out to be 137 nM and the “5-HT2C Function Emax (%)” value was found to be 80%.
Consider `CNCC1Cc2cccc(-c3cccc(Cl)c3)c2O1` (racemic) [Example 416, (±)-[(N-methyl-1-[7-(3-chlorophenyl)-2,3-dihydro-1-benzofuran-2-yl]methanamine], for which, in experiment [1], the inhibition constant Ki was found to be 1.6 nM. On human 5-HT2C receptor, the Emax was found to be 70% and the EC50 was determined as 467 nM.
The corresponding values for `NCC1Cc2cc(F)cc(-c3ccccc3)c2O1` (racemic) [Example 103, (±)-1-(5-fluoro-7-phenyl-2,3-dihydro-1-benzofuran-2-yl)methanamine] are 7 nM, 80% and 996 nM.
The corresponding values for `COc1ccccc1-c1cc(Cl)cc2c1OC(CN)C2` (racemic) [Example 242, (±)-{[5-chloro-7-(2-methoxyphenyl)-2,3-dihydro-1-benzofuran-2-yl]methyl}amine] are 3 nM, 90% and 48 nM.
For `CNCC1Cc2cc(F)cc(-c3cccnc3)c2O1` (racemic) [Example 459, (±)-[(5-fluoro-7-pyridin-3-yl-2,3-dihydro-1-benzofuran-2-yl)methyl]methylamine], the Ki in experiment [1] stood at 24 nM. In addition, at human 5-HT2C receptor, the Emax is 90% and the half-maximal effective concentration (EC50) came to 16 nM.
Regarding `NCC1Cc2cc(C(F)(F)F)cc(-c3ccc(F)cc3F)c2O1` (racemic) [Example 332, (±)-{[7-(2,4-difluorophenyl)-5-(trifluoromethyl)-2,3-dihydro-1-benzofuran-2-yl]methyl}amine], in experiment [1], the Ki was 37 nM. Moreover, on human 5-HT2C receptor, the Emax was found to be 80% and the concentration giving a half-maximal response (EC50) amounted to 111 nM.
As for `CNCC1Cc2cccc(-c3c(Cl)cccc3Cl)c2O1` (single isomer, unassigned; (-)) [Example 434, (−)-{[7-(2,6-dichlorophenyl)-2,3-dihydro-1-benzofuran-2-yl]methyl}methylamine], the Ki in experiment [1] is 0.03 nM. At human 5-HT2C receptor, the maximal effect (Emax) came to 90% and the EC50 is 7 nM.
For the compound `NCC1Cc2c(cccc2-c2ccccc2C(F)(F)F)O1` (racemic) [Example 122, (±)-1-{4-[2-(trifluoromethyl)phenyl]-2,3-dihydro-1-benzofuran-2-yl}methanamine], the inhibition constant Ki in experiment [1] worked out at 95 nM. For the same compound, at human 5-HT2C receptor, the Emax turned out to be 70% and the EC50 amounted to 931 nM.
Taken in the same sequence, the figures for `CNCC1Cc2cccc(-c3ccccc3Cl)c2O1` (single isomer, unassigned; (+)) [Example 410, (+)-N-methyl-1-[7-(2-chlorophenyl)-2,3-dihydro-1-benzofuran-2-yl]methanamine] were 0.08 nM, 90% and 0.05 nM.
As for `COc1ccc(-c2cccc3c2OC(CN)C3)cc1` (racemic) [Example 79, (±)-1-[7-(4-methoxyphenyl)-2,3-dihydro-1-benzofuran-2-yl]methanamine], the Ki in experiment [1] was found to be 2 nM. On human 5-HT2C receptor, the maximum response (Emax) turned out to be 95% and the EC50 worked out at 24 nM.
With `NCC1Cc2cccc(-c3ccc(Cl)cc3)c2O1` (single isomer, unassigned; (-)) [Example 78, (−)-1-[7-(4-chlorophenyl)-2,3-dihydro-1-benzofuran-2-yl]methanamine], the Ki in experiment [1] is 41 nM. At human 5-HT2C receptor, the concentration for a half-maximal effect (EC50) came out at 161 nM and the “5-HT2C Function Emax (%)” value was found to be 90%.
Turning to `Cc1cccc(C)c1-c1cc(Cl)cc2c1OC(CN)C2` (racemic) [Example 260, (±)-{[5-chloro-7-(2,6-dimethylphenyl)-2,3-dihydro-1-benzofuran-2-yl]methyl}amine], in experiment [1], the Ki was found to be 0.13 nM. At human 5-HT2C receptor, the Emax worked out at 90% and the half-maximal effective concentration (EC50) is 22 nM.
In the case of `Cc1c(Cl)cc(C(C)C)c2c1CC(CN)O2` (single isomer, unassigned; (+)) [Example 23, (+)-1-(5-chloro-7-isopropyl-4-methyl-2,3-dihydro-1-benzofuran-2-yl)methanamine], the Ki in experiment [1] worked out at 9 nM. Moreover, on human 5-HT2C receptor, the EC50 was determined as 73 nM and the “5-HT2C Function Emax (%)” value is on record as 80%.
`CNCC1Cc2cc(C)cc(-c3c(C)cccc3C)c2O1` (racemic) [Example 489, (±)-{[7-(2,6-dimethylphenyl)-5-methyl-2,3-dihydro-1-benzofuran-2-yl]methyl}methylamine]: in experiment [1], the Ki was determined as 3 nM. In addition, at human 5-HT2C receptor, the Emax came out at 90% and the EC50 was found to be 39 nM.
The corresponding values for `NCC1Cc2cc(Cl)cc(-c3cccc(Cl)c3Cl)c2O1` (racemic) [Example 247, (±)-{[5-chloro-7-(2,3-dichlorophenyl)-2,3-dihydro-1-benzofuran-2-yl]methyl}amine] are 15 nM, 90% and 164 nM.
Consider `NCC1Cc2cc(F)cc(-c3cc(F)ccc3F)c2O1` (racemic) [Example 220, (±)-{[7-(2,5-difluorophenyl)-5-fluoro-2,3-dihydro-1-benzofuran-2-yl]methyl}amine], for which the Ki in experiment [1] was 8 nM. At human 5-HT2C receptor, the Emax is 90% and the EC50 stood at 30 nM.
Regarding `CNCC1Cc2cccc(-c3cccc(OC)c3OC)c2O1` (racemic) [Example 423, (±)-[(N-methyl-1-[7-(2,3-dimethoxyphenyl)-2,3-dihydro-1-benzofuran-2-yl]methanamine], in experiment [1], the Ki worked out at 6.1 nM. Further, on human 5-HT2C receptor, the Emax was 70% and the concentration giving a half-maximal response (EC50) was found to be 28 nM.
As to `Cc1ccc(-c2cccc3c2OC(CN)C3)cc1` (single isomer, unassigned; (-)) [Example 72, (−)-1-[7-(4-methylphenyl)-2,3-dihydro-1-benzofuran-2-yl]methanamine], in experiment [1], the Ki came to 33 nM. Also, on human 5-HT2C receptor, the EC50 is 511 nM and the “5-HT2C Function Emax (%)” value turned out to be 85%.
As to `NCC1Cc2cc(C(F)(F)F)cc(-c3cc(F)ccc3F)c2O1` (racemic) [Example 336, (±)-{[7-(2,5-difluorophenyl)-5-(trifluoromethyl)-2,3-dihydro-1-benzofuran-2-yl]methyl}amine], the Ki in experiment [1] came to 45 nM. For the same compound, on human 5-HT2C receptor, the maximal response (Emax) was 90% and the 50% effective concentration (EC50) was determined as 123 nM.
